Measurements from patent US5710245A, “Alpha-helix mimetics and methods relating thereto” (Molecumetics, Ltd., priority 1995, dated 1998).

Test: Circular dichroism (alpha-helicity) of peptide in water
Type: physicochemical
Details: ratio of mean residue ellipticity at 222 nm to 208 nm, 75 μM in water
Text: Alpha-helicity of a peptide is typically determined by measuring its circular dichroism (CD), and CD data is normally presented as mean residue ellipticies [.THETA.]m. Alpha-helical peptides show two negative Cotton effects at 208 nm and 222 nm, and a positive Cotton effect at 193 nm, while the CD spectra of peptides with random coil secondary structure are dominated by the increasing negative Cotton effect at shorter wavelength. Alpha-helicity may be estimated from the value at 222 nm, and by comparing the negative Cotton effects at 222nm and 208nm. Increasing fraction of [.THETA.]m (222 nm) divided by [.THETA.]m(208 nm) correlates with increasing alpha-helicity. High values for [.THETA.]m(208 nm) compared to [.THETA.]m (222 nm) and a shifting minimum from 208 nm to shorter wavelengths indicate random coil conformation.
An NPY analog having the structure Ac-RAAANLITRQRY--NH2 was synthesized according to standard solid phase peptide synthetic techniques. The NPY analog was then dissolved in water at a concentration of 75 μM, and its CD measured using a JASCO J500 CD spectrometer at a temperature of both 3° C. and 25° C. Structure VI was synthesized according to Example 3, and its CD was similarly measured at both 3° C. and 25° C. (at a concentration of 75 μM).

## Ac-RAAANLITRQRY-NH2 [NPY Analog, Ac-RAAANLITRQRY--NH2]
3° C.
  Circular Dichroism 222/208 3° C.: 0.38
25° C.
  Circular Dichroism 222/208 25° C.: 0.41
